Measured values: the NIST ThermoML archive (doi:10.1016/j.jct.2016.02.009)
Where “and” joins values, the source holds several entries; their conditions need not be identical. Equal values may be shown once.

Test: molar heat capacity at constant pressure
Conditions: 101.33 kPa, Small (less than 1 g) adiabatic calorimetry

CCCCCCCCCCCCCCn1cc[n+](C)c1.O=S(=O)([N-]S(=O)(=O)C(F)(F)F)C(F)(F)F
Conditions | molar heat capacity at constant pressure
180 K, Crystal 2 | 473.1 J/K/mol
180.86 K, Crystal 2 | 474.8 J/K/mol
181.71 K, Crystal 2 | 476.2 J/K/mol
183.59 K, Crystal 2 | 479.9 J/K/mol
184.16 K, Crystal 2 | 480.9 J/K/mol
186.32 K, Crystal 2 | 485.4 J/K/mol
186.61 K, Crystal 2 | 485.8 J/K/mol
189.04 K, Crystal 2 | 490.7 J/K/mol
189.07 K, Crystal 2 | 490.4 J/K/mol
190 K, Crystal 2 | 492.5 J/K/mol
191.51 K, Crystal 2 | 495.2 J/K/mol
191.77 K, Crystal 2 | 496.1 J/K/mol
193.95 K, Crystal 2 | 500 J/K/mol
194.49 K, Crystal 2 | 501.3 J/K/mol
196.39 K, Crystal 2 | 504.9 J/K/mol
197.2 K, Crystal 2 | 507 J/K/mol
198.82 K, Crystal 2 | 509.9 J/K/mol
199.91 K, Crystal 2 | 512.5 J/K/mol
200 K, Crystal 2 | 512.7 J/K/mol
201.26 K, Crystal 2 | 515.7 J/K/mol
202.62 K, Crystal 2 | 518.2 J/K/mol
203.7 K, Crystal 2 | 520.6 J/K/mol
205.33 K, Crystal 2 | 523.7 J/K/mol
206.13 K, Crystal 2 | 525.4 J/K/mol
208.03 K, Crystal 2 | 529.6 J/K/mol
208.56 K, Crystal 2 | 530.7 J/K/mol
210 K, Crystal 2 | 533.6 J/K/mol
210.73 K, Crystal 2 | 535.2 J/K/mol
210.99 K, Crystal 2 | 535.9 J/K/mol
213.42 K, Crystal 2 | 541.2 J/K/mol and 540.9 J/K/mol
215.85 K, Crystal 2 | 546.3 J/K/mol
216.12 K, Crystal 2 | 547 J/K/mol
218.27 K, Crystal 2 | 551.8 J/K/mol
218.8 K, Crystal 2 | 552.9 J/K/mol
220 K, Crystal 2 | 556 J/K/mol
220.69 K, Crystal 2 | 557.4 J/K/mol
221.49 K, Crystal 2 | 559.3 J/K/mol
223.1 K, Crystal 2 | 562.9 J/K/mol
224.17 K, Crystal 2 | 565.7 J/K/mol
225.52 K, Crystal 2 | 568.8 J/K/mol
226.84 K, Crystal 2 | 572.3 J/K/mol
227.93 K, Crystal 2 | 575.1 J/K/mol
229.5 K, Crystal 2 | 579.5 J/K/mol
230 K, Crystal 2 | 580.3 J/K/mol
230.33 K, Crystal 2 | 581.3 J/K/mol
232.15 K, Crystal 2 | 586.6 J/K/mol
232.74 K, Crystal 2 | 587.7 J/K/mol
234.8 K, Crystal 2 | 593.8 J/K/mol
235.14 K, Crystal 2 | 593.7 J/K/mol
237.44 K, Crystal 2 | 600.9 J/K/mol
237.53 K, Crystal 2 | 600.1 J/K/mol
239.92 K, Crystal 2 | 607.2 J/K/mol
240 K, Crystal 2 | 607.6 J/K/mol
240.07 K, Crystal 2 | 608 J/K/mol
242.33 K, Crystal 2 | 613.8 J/K/mol
242.71 K, Crystal 2 | 616.1 J/K/mol
244.72 K, Crystal 2 | 621.4 J/K/mol
245.33 K, Crystal 2 | 624.4 J/K/mol
247.1 K, Crystal 2 | 629.1 J/K/mol
247.95 K, Crystal 2 | 632.9 J/K/mol
249.48 K, Crystal 2 | 637 J/K/mol
250 K, Crystal 2 | 639.3 J/K/mol
250.55 K, Crystal 2 | 642.1 J/K/mol
251.33 K, Crystal 2 | 642.4 J/K/mol
252.65 K, Crystal 2 | 648 J/K/mol
253.15 K, Crystal 2 | 651.7 J/K/mol
253.97 K, Crystal 2 | 653.1 J/K/mol
255.29 K, Crystal 2 | 657.1 J/K/mol
255.74 K, Crystal 2 | 660.9 J/K/mol
256.6 K, Crystal 2 | 662.4 J/K/mol
257.91 K, Crystal 2 | 667.6 J/K/mol
258.31 K, Crystal 2 | 671.7 J/K/mol
259.22 K, Crystal 2 | 673.8 J/K/mol
260 K, Crystal 2 | 677.5 J/K/mol
260.52 K, Crystal 2 | 679.4 J/K/mol
260.86 K, Crystal 2 | 683.4 J/K/mol
261.81 K, Crystal 2 | 685.8 J/K/mol
263.1 K, Crystal 2 | 692.1 J/K/mol
263.41 K, Crystal 2 | 696 J/K/mol
264.39 K, Crystal 2 | 699.3 J/K/mol
265.67 K, Crystal 2 | 706.4 J/K/mol
265.94 K, Crystal 2 | 709.4 J/K/mol
266.97 K, Crystal 2 | 713.8 J/K/mol
268.24 K, Crystal 2 | 721.6 J/K/mol
268.46 K, Crystal 2 | 725 J/K/mol
269.5 K, Crystal 2 | 730 J/K/mol
270 K, Crystal 2 | 734.5 J/K/mol
270.76 K, Crystal 2 | 739.3 J/K/mol
270.95 K, Crystal 2 | 741.9 J/K/mol
272.01 K, Crystal 2 | 748.9 J/K/mol
273.25 K, Crystal 2 | 759 J/K/mol
273.42 K, Crystal 2 | 761.2 J/K/mol
274.48 K, Crystal 2 | 769.6 J/K/mol
275.71 K, Crystal 2 | 781.6 J/K/mol
275.87 K, Crystal 2 | 783.5 J/K/mol
276.93 K, Crystal 2 | 793.6 J/K/mol
278.14 K, Crystal 2 | 807.6 J/K/mol
278.29 K, Crystal 2 | 809.7 J/K/mol
279.35 K, Crystal 2 | 822 J/K/mol
280 K, Crystal 2 | 830.5 J/K/mol
280.54 K, Crystal 2 | 837.6 J/K/mol
280.67 K, Crystal 2 | 840.7 J/K/mol
281.72 K, Crystal 2 | 855 J/K/mol
282.9 K, Crystal 2 | 874.3 J/K/mol
283.02 K, Crystal 2 | 878.3 J/K/mol
284.05 K, Crystal 2 | 895.5 J/K/mol
285.2 K, Crystal 2 | 918.1 J/K/mol
285.31 K, Crystal 2 | 923.3 J/K/mol
286.34 K, Crystal 2 | 943.8 J/K/mol
287.46 K, Crystal 2 | 972.2 J/K/mol
287.56 K, Crystal 2 | 977.1 J/K/mol
288.56 K, Crystal 2 | 1003 J/K/mol
289.65 K, Crystal 2 | 1034 J/K/mol
289.75 K, Crystal 2 | 1039 J/K/mol
290 K, Crystal 2 | 1046 J/K/mol
290.72 K, Crystal 2 | 1067 J/K/mol
291.76 K, Crystal 2 | 1097 J/K/mol
291.87 K, Crystal 2 | 1102 J/K/mol
292.8 K, Crystal 2 | 1118 J/K/mol
293.83 K, Crystal 2 | 1139 J/K/mol
293.96 K, Crystal 2 | 1145 J/K/mol
294.85 K, Crystal 2 | 1153 J/K/mol
295.5 K, Crystal 1 | 1155 J/K/mol
295.5 K, Crystal 2 | 1155 J/K/mol
295.86 K, Crystal 1 | 1154 J/K/mol
296 K, Crystal 1 | 1156 J/K/mol
296.87 K, Crystal 1 | 1144 J/K/mol
297.93 K, Crystal 1 | 998.8 J/K/mol
298.13 K, Crystal 1 | 971.7 J/K/mol
298.15 K, Crystal 1 | 971.6 J/K/mol
299.06 K, Crystal 1 | 853.3 J/K/mol
300 K, Crystal 1 | 851.8 J/K/mol
300.22 K, Crystal 1 | 854.4 J/K/mol
300.42 K, Crystal 1 | 852.5 J/K/mol
301.39 K, Crystal 1 | 866.6 J/K/mol
302.54 K, Crystal 1 | 889.6 J/K/mol
302.77 K, Crystal 1 | 884.7 J/K/mol
303.68 K, Crystal 1 | 937.6 J/K/mol
304.77 K, Crystal 1 | 1081 J/K/mol
304.97 K, Crystal 1 | 1130 J/K/mol
305.73 K, Crystal 1 | 1438 J/K/mol
308.77 K, Crystal 1 | 898.6 J/K/mol
308.77 K, Liquid | 896.2 J/K/mol
310 K, Liquid | 897.4 J/K/mol
320 K, Liquid | 907.2 J/K/mol
330 K, Liquid | 917 J/K/mol
340 K, Liquid | 926.7 J/K/mol
350 K, Liquid | 936.5 J/K/mol
360 K, Liquid | 946.2 J/K/mol
370 K, Liquid | 956 J/K/mol
